Legend:
[1] = species: Homo sapiens; assay: Inhibitory activity (treatment time 120 min) against MCF-7 pi cell line; assay type: functional; settings: MCF7, 2 h
[2] = species: Homo sapiens; assay: Inhibitory activity (treatment time 120 min) against MCF-7 neo cell line; assay type: functional; settings: MCF7, 2 h

Row | Compound | IC50 [1] | IC50 [2]
1 | NC(CCC(=O)NC(CS(=O)(=O)CCOP(=O)(N(CCCl)CCCl)N(CCCl)CCCl)C(=O)NC(C(=O)O)c1ccccc1)C(=O)O (stereo not given) | 14.4 µM | 39.9 µM
2 | NC(CCC(=O)NC(CS(=O)(=O)CCOC(=O)N(CCCl)CCCl)C(=O)NCC(=O)O)C(=O)O (stereo not given) | 85.8 µM | 133 µM
3 | NC(CCC(=O)NC(CS(=O)(=O)CCOP(=O)(N(CCBr)CCBr)N(CCBr)CCBr)C(=O)NC(C(=O)O)c1ccccc1)C(=O)O (stereo not given) | 11.4 µM | 16.1 µM
4 | NC(CCC(=O)NC(CS(=O)(=O)C(COP(=O)(N(CCCl)CCCl)N(CCCl)CCCl)c1ccccc1)C(=O)NCC(=O)O)C(=O)O (stereo not given) | 13.5 µM | 21.3 µM
5 | CCOC(=O)CNC(=O)C(CS(=O)(=O)CCOC(=O)N(CCCl)CCCl)NC(=O)CCC(N)C(=O)OCC (stereo not given) | 68.8 µM | 102 µM

From ChEMBL document CHEMBL1129556, “Design, synthesis, and evaluation of latent alkylating agents activated by glutathione S-transferase” (J Med Chem, 1996)
